Patent US20080096807A1, “Cyclic vasoactive intestinal peptide receptor-2 agonists” (priority 2006, published 2008)
Bridge positions count the residues as written; N and C are the ends. Square brackets hold non-standard residues; d marks the D form. Peptide text beside a SMILES is read from it. ξ: configuration not given here. Thr(3ξ) = CC(O)[C@H](N)C(=O)O; Nle = CCCC[C@H](N)C(=O)O

Assays:
VPAC2 receptor = target: T1, VPAC2 receptor (Homo sapiens, UniProt P41587); experiment: Sup-T1 cAMP agonist assay; assay type: cell-based; details: human T-lymphoid cell line Sup-T1 expressing VPAC2 receptor; cAMP EIA; 5 min at room temperature; read-out: Sup-T1 cAMP EC50
T1 construct: The human T-lymphoid cell line Sup-Ti, which expresses the VPAC2 receptor; host or cells: Sup-T1 (Sup-Ti [sic]) human T-lymphoid cell line
T1 sequence (P41587 24-438): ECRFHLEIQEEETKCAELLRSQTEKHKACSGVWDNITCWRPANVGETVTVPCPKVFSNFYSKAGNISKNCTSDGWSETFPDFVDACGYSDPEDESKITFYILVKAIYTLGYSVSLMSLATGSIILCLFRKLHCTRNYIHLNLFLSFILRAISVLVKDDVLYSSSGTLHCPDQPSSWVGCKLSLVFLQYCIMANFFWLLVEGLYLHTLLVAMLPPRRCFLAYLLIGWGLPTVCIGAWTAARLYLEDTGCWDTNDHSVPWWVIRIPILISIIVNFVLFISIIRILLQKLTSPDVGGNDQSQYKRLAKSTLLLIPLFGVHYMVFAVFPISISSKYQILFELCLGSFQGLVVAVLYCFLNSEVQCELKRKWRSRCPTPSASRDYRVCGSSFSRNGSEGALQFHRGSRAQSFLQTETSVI
Method: The human T-lymphoid cell line Sup-Ti, which expresses the VPAC2 receptor, was obtained from the American Type Culture Collection (ATCC, CRL-1942) and maintained in growth medium at densities between 0.2 and 2×10^6 cells/ml in a 37° C. CO2 incubator. The growth medium was RPMI 1640 (Invitrogen) supplemented with 25 mM HEPES buffer and 10% fetal bovine serum (Gemini Bioproducts).
To evaluate VPAC2 agonist compound activity, cells in log-phase growth were washed once with growth medium at room temperature and plated into 96-well plates at a density of 4×10^4 cells per well in 150 uL of growth medium. Fifty uL of the compounds to be tested, prepared at appropriate concentrations in growth medium, were then added to designated wells. After 5 min at room temperature, the cells were lysed by adding 25 uL of lysis reagent 1A (cAMP Biotrak EIA system, Amersham Biosciences, RPN225) to each well. The 96-well plates were kept at room temperature for 10 min with shaking and then stored at 4° C. until analysis for cAMP (within 2 hr).
Cyclic AMP levels were determined in 100 uL of each lysate using the cAMP Biotrak Enzymeimmunoassay (EIA) kit according to the manufacture's instructions (Amersham Biosciences, RPN225). The activity of each VPAC2 agonist compound (EC50 value) was estimated by fitting the 7-concentration dose response data to a sigmoidal dose-response equation provided by the GraphPad Prism program (GraphPad Software, Inc.).

[1] = test system: LPS-induced lung inflammation in male C57BL/6 mice; experiment: LPS-induced lung inflammation in male C57BL/6 mice (BAL neutrophilia); assay type: in vivo; details: BAL fluid neutrophilia
Method: C57bl/6 mice are pretreated with vehicle or drug prior to an aerosol expose to lipopolysacchride (LPS, 500 μg/ml in sterile saline) for 15-30 minutes. The aerosol is generated by a Pari Ultra neb jet nebulizer, the outlet of which is connected to a small clear plastic chamber [H×W×D, 10.7×25.7×11 cm (4×10×4.5 in)] containing the animals. Bronchoalveolar lavage (BAL) is performed 24 hr later to determine the intensity of cell inflammation. BAL procedure is performed as described below.
Mice are pretreated with vehicle or drug prior to an intranasal administration of lipopolysacchride (0.05-0.3 mg/kg in sterile saline; 50 μl total volume, 25 μl/nostril). Intranasal administration is performed by presenting small droplets of the dosing solution at the nostril using a 25-50 μl eppendorff pipet. BAL is performed 3 to 24 h post LPS challenged as described above to determine the intensity of cell inflammation.
24 h following LPS exposure, animals are anesthetized with pentobarbital (80-100 mg/kg, i.p.), ketamine/xyzaline (80-120 mg/kg/2-4 mg/kg, i.p.) or urethane (1.5-2.4 g/kg, i.p.); and through a small midline neck incision (15-20 mm), the trachea is exposed and cannulated with 20-gauge tubing adapter. Lungs are lavaged with 2×1 ml sterile Hank's balanced salt solution without Ca++ and Mg++(HBSS). Lavage fluid is recovered after 30 sec by gentle aspiration and pooled for each animal. Samples are then centrifuged at 2000 rpm for 10 minutes at 5° C. Supernatant is aspirated, and red blood cells are lysed from the resulting pellet with 0.5 ml distilled water for 30 sec before restoring osmolarity to the remaining cells by the addition of 5 ml of HBSS. Samples are recentrifuged at 2000 rpm for 10 minutes at 5° C. and supernatant aspirated. The resulting pellet is resuspended in 1 ml of HBSS. Total cell number is determined by Trypan Blue (Sigma Chemical, St. Louis, Mo.) exclusion from an aliquot of cell suspension using a hemocytometer or coulter counter. For differential cell counts, an aliquot of the cell suspension is centrifuged in a Cytospin (5 min, 1300 rpm; Shandon Southern Instruments, Sewickley, Pa.) and the slides fixed and stained with a modified Wright's stain (Hema 3 stain kit, Fisher Scientific). Standard morphological criteria is used in classifying at least 300 cells under light microscopy. Data in Table 3 is expressed as BAL cells×10^4/animal for neutrophils and total cells, or percent inhibition of the LPS induced BAL fluid neutrophilia response.

[2] = target: T2, human neutrophil elastase (Homo sapiens, UniProt P08246); experiment: Peptide stability to neutrophil elastase (RP HPLC ESI MS); details: halftime with human neutrophil elastase 1 to 2 μg/mL in PBS, ambient temperature, normalized to halftime of the reference standard
T2 sequence (P08246 30-247 limits assumed): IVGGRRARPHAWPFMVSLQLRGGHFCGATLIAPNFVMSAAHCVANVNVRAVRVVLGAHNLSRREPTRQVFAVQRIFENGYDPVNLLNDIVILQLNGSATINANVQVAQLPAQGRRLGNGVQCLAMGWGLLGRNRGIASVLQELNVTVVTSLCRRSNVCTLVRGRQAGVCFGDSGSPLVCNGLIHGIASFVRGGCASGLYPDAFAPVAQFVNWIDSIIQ
Method: The proteolytic stabilities of peptide analogs were established with reversed phase high pressure liquid chromatography (RP HPLC) electrospray ionization mass spectrometry (ESI MS). Peptide analogs were incubated with human neutrophile elastase and the quantity of undigested analogs was determined by ESI MS at appropriate time points. Multiple peptide analogs could be included in one experiment as long as they could be differentiated by HPLC retention time and/or by molecular weight. Ac-His Ac-[sequence]Nle-[sequence]NH2 was used in all experiments as a control and as a reference standard. The simultaneous use of multiple peptide analogs together with a reference standard allowed for compensation for variations in the proteolytic fidelity of the enzyme over the multiple experiments. Integrated ion currents obtained for the individual undigested peptide were used for quantitation. For calculation of halftime first-order kinetic behavior was assumed and all calculations were normalized to the halftime of the reference standard.
Peptide stock solutions were prepared in water to a concentration of 2.5 mg/mL. Unless in use, all stock solutions were kept at −20° C. […] Concentrations of the peptide analogs were adjusted accordingly. In order to do the proteolytic digestion, peptides were dissolved in phosphate buffered saline (PBS) to a concentration of 0.1 mg/mL. As many as six different peptide analogs were mixed into one 50 μL reaction volume. The reference standard was added to all experiments as a reference and internal standard. Elastase (Human Neutrophil, Calbiochem, Cat # 324681) was added from an elastase stock solution to a concentration of 1 to 2 μg/mL. Different amounts of the enzyme were chosen to compensate for the differences in the proteolytic stabilities of the peptide analogs. Previously, a stock solution of elastase was prepared in water at a concentration of 1 mg/mL. Small aliquots of the enzyme stock solution were kept at −20° C. to better maintain the enzyme activity by limiting the number of thaw and freeze cycles.
The digestion was done at ambient temperature in an autosampler tube within the autosampler of the HPLC system (Agilent 1100 Series). For a time course, 5 μL aliquots were injected in 70 minute intervals onto the reversed phase HPLC column (Phenomenex, Luna C18, 3μ, 100 ↑, 150×2.00 mm). For the starting time point an aliquot was injected just prior to the addition of the proteolytic enzyme. A total of eight time points could be recorded from one experiment, including the starting point. Peptides were separated on the reversed phase column with a 50 minute gradient of 5% to 30% organic phase. The aqueous phase was 0.05% (v/v) of trifluoroacetic acid in water and the organic one was 0.045% (v/v) of trifluoroacetic acid in acetonitrile. Absorbances were recorded at 214 and 280 nm respectively. All of the column effluent was introduced into the turbo V source of the electrospray ionization mass spectrometer (ABI 4000 QTrap LC/MS/MS System). Mass spectra were acquired in Q3MS mode in a mass range to include all triply charged ions of the non degraded peptide analogs. Care was taken to assure that peptide analogs could clearly be differentiated either by the chromatographic retention time or by the difference in molecular weight. Relative quantities of the respective undigested peptide analog were calculated from the integrated total ion current. A window of 2.5 Da was chosen and the manufacturer's software was used to integrate the individual ion currents. The overall halftime of an individual peptide analog was calculated by assuming first-order kinetic behavior and was normalized with respect to the halftime of the reference standard.

Row | SMILES | EC50 (VPAC2 receptor) | Inhibition of LPS-induced neutrophilia ([1]; Dose 0.1%) | Relative elastase stability [2] | Inhibition of LPS-induced neutrophilia ([1]; Dose 0.01%)
1 | CCCC[C@H](NC(=O)[C@H](CCC(N)=O)NC(=O)[C@H](CCCCN)NC(=O)[C@H](CCCNC(=N)N)NC(=O)[C@H](CC(C)C)NC(=O)[C@H](CCCCN)NC(=O)[C@@H](NC(=O)[C@H](Cc1ccc(O)cc1)NC(=O)[C@H](CC(N)=O)NC(=O)[C@H](CCC(=O)O)NC(=O)[C@@H](NC(=O)[C@H](Cc1ccccc1)NC(=O)[C@H](CO)NC(=O)[C@H](C)NC(=O)[C@H](CC(=O)O)NC(=O)[C@H](CO)NC(=O)[C@H](Cc1c[nH]cn1)NC(C)=O)C(C)O)C(C)O)C(=O)N[C@@H](C)C(=O)N[C@@H](C)C(=O)N[C@@H](CCCCN)C(=O)N[C@H]1CCCCNC(=O)C[C@@H](C(=O)N[C@@H](CC(C)C)C(=O)N[C@@H](CC(C)C)C(=O)N[C@@H](CCCCN)C(=O)NCC(=O)NCC(=O)N[C@H](C(N)=O)C(C)O)NC(=O)[C@H](CC(N)=O)NC(=O)[C@H](CC(C)C)NC(=O)[C@H](Cc2ccc(O)cc2)NC1=O (stereo partly shown) [Example 8] (Ac-HSDASF[Thr(3ξ)]ENY[Thr(3ξ)]KLRKQ[Nle]AAKKYLNDLLKGG[Thr(3ξ)]-NH2; lactam 21-25) | 11.4 nM | ++ (++ >30%) | 3.5 | –
2 | CCCC[C@H](NC(=O)[C@H](CCC(N)=O)NC(=O)[C@H](CCCCN)NC(=O)[C@H](CCCNC(=N)N)NC(=O)[C@H](CC(C)C)NC(=O)[C@H](CCCCN)NC(=O)[C@@H](NC(=O)[C@H](Cc1ccc(O)cc1)NC(=O)[C@H](CC(N)=O)NC(=O)[C@H](CCC(=O)O)NC(=O)[C@@H](NC(=O)[C@H](Cc1ccccc1)NC(=O)[C@@H](NC(=O)[C@H](C)NC(=O)[C@H](CC(=O)O)NC(=O)[C@H](CO)NC(=O)[C@H](Cc1c[nH]cn1)NC(C)=O)C(C)O)C(C)O)C(C)O)C(=O)N[C@@H](C)C(=O)N[C@@H](C)C(=O)N[C@@H](CCCCN)C(=O)N[C@H]1CCCCNC(=O)C[C@@H](C(=O)N[C@@H](CC(C)C)C(=O)N[C@@H](CCCCN)C(=O)N[C@@H](CCCCN)C(=O)NCC(=O)NCC(=O)N[C@H](C(N)=O)C(C)O)NC(=O)[C@H](CC(N)=O)NC(=O)[C@H](CC(C)C)NC(=O)[C@H](Cc2ccc(O)cc2)NC1=O (stereo partly shown) [Example 1] (Ac-HSDA[Thr(3ξ)]F[Thr(3ξ)]ENY[Thr(3ξ)]KLRKQ[Nle]AAKKYLNDLKKGG[Thr(3ξ)]-NH2; lactam 21-25) | 38 nM | + (+ 10-30%) | 3.9 | –
3 | CCCC[C@H](NC(=O)[C@H](CCC(N)=O)NC(=O)[C@H](CCCCN)NC(=O)[C@H](CCCNC(=N)N)NC(=O)[C@H](CC(C)C)NC(=O)[C@H](CCCCN)NC(=O)[C@@H](NC(=O)[C@H](Cc1ccc(O)cc1)NC(=O)[C@H](CC(N)=O)NC(=O)[C@H](CCC(=O)O)NC(=O)[C@@H](NC(=O)[C@H](Cc1ccccc1)NC(=O)[C@H](CO)NC(=O)[C@H](C)NC(=O)[C@H](CC(=O)O)NC(=O)[C@H](CO)NC(=O)[C@H](Cc1c[nH]cn1)NC(C)=O)C(C)O)C(C)O)C(=O)N[C@@H](CCCCN)C(=O)N[C@@H](C)C(=O)N[C@@H](CCCCN)C(=O)N[C@H]1CCCCNC(=O)C[C@@H](C(=O)N[C@@H](CC(C)C)C(=O)N[C@@H](CCCCN)C(=O)N[C@@H](CCCCN)C(=O)NCC(=O)NCC(=O)N[C@H](C(N)=O)C(C)O)NC(=O)[C@H](CC(N)=O)NC(=O)[C@H](CC(C)C)NC(=O)[C@H](Cc2ccc(O)cc2)NC1=O (stereo partly shown) [Example 9] (Ac-HSDASF[Thr(3ξ)]ENY[Thr(3ξ)]KLRKQ[Nle]KAKKYLNDLKKGG[Thr(3ξ)]-NH2; lactam 21-25) | 1200 nM | – | 12.0 | + (+ 10-30%)
4 | CCCC[C@H](NC(=O)[C@H](CCCNC(=N)N)NC(=O)[C@H](CCCCN)NC(=O)[C@H](CCCNC(=N)N)NC(=O)[C@H](CC(C)C)NC(=O)[C@H](CCCCN)NC(=O)[C@@H](NC(=O)[C@H](Cc1ccc(O)cc1)NC(=O)[C@H](CC(N)=O)NC(=O)[C@H](CCC(=O)O)NC(=O)[C@@H](NC(=O)[C@H](Cc1ccccc1)NC(=O)[C@H](CO)NC(=O)[C@H](C)NC(=O)[C@H](CC(=O)O)NC(=O)[C@H](CO)NC(=O)[C@H](Cc1c[nH]cn1)NC(C)=O)C(C)O)C(C)O)C(=O)N[C@@H](CCCCN)C(=O)N[C@@H](C)C(=O)N[C@@H](CCCCN)C(=O)N[C@H]1CCCCNC(=O)C[C@@H](C(=O)N[C@@H](CC(C)C)C(=O)N[C@@H](CCCCN)C(=O)N[C@@H](CCCCN)C(=O)NCC(=O)NCC(=O)N[C@H](C(N)=O)C(C)O)NC(=O)[C@H](CC(N)=O)NC(=O)[C@H](CC(C)C)NC(=O)[C@H](Cc2ccc(O)cc2)NC1=O (stereo partly shown) [Example 16] (Ac-HSDASF[Thr(3ξ)]ENY[Thr(3ξ)]KLRKR[Nle]KAKKYLNDLKKGG[Thr(3ξ)]-NH2; lactam 21-25) | 1030 nM | – | 4.4 | –
5 | CCCC[C@H](NC(=O)[C@H](CCC(N)=O)NC(=O)[C@H](CCCCN)NC(=O)[C@H](CCCNC(=N)N)NC(=O)[C@H](CC(C)C)NC(=O)[C@H](CCCCN)NC(=O)[C@@H](NC(=O)[C@H](Cc1ccc(O)cc1)NC(=O)[C@H](CC(N)=O)NC(=O)[C@H](CCC(=O)O)NC(=O)[C@@H](NC(=O)[C@H](Cc1ccccc1)NC(=O)[C@@H]1CCCN1C(=O)[C@H](C)NC(=O)[C@H](CC(=O)O)NC(=O)[C@H](CO)NC(=O)[C@H](Cc1c[nH]cn1)NC(C)=O)C(C)O)C(C)O)C(=O)N[C@@H](C)C(=O)N[C@@H](C)C(=O)N[C@@H](CCCCN)C(=O)N[C@H]1CCCCNC(=O)C[C@@H](C(=O)N[C@@H](CC(C)C)C(=O)N[C@@H](CCCCN)C(=O)N[C@@H](CCCCN)C(=O)NCC(=O)NCC(=O)N[C@H](C(N)=O)C(C)O)NC(=O)[C@H](CC(N)=O)NC(=O)[C@H](CC(C)C)NC(=O)[C@H](Cc2ccc(O)cc2)NC1=O (stereo partly shown) [Example 5] (Ac-HSDAPF[Thr(3ξ)]ENY[Thr(3ξ)]KLRKQ[Nle]AAKKYLNDLKKGG[Thr(3ξ)]-NH2; lactam 21-25) | 1210 nM | – | 4.9 | –
